In patent publication US9682925B2, “Cyclopropaneamine compound” (TAKEDA PHARMACEUTICAL COMPANY LIMITED, priority 2011, dated 2017):
Where a name gives a salt, the structure may show the parent alone.

Assays:
Type in all cases: biochemical
[1] = molecular target: T1, MAO-B (Homo sapiens, UniProt P27338); experiment: Measurement of MAO-B inhibitory activity (MAO-Glo Assay)
T1 construct: purchased Sigma-Aldrich Co. LLC
T1 sequence (P27338 1-520): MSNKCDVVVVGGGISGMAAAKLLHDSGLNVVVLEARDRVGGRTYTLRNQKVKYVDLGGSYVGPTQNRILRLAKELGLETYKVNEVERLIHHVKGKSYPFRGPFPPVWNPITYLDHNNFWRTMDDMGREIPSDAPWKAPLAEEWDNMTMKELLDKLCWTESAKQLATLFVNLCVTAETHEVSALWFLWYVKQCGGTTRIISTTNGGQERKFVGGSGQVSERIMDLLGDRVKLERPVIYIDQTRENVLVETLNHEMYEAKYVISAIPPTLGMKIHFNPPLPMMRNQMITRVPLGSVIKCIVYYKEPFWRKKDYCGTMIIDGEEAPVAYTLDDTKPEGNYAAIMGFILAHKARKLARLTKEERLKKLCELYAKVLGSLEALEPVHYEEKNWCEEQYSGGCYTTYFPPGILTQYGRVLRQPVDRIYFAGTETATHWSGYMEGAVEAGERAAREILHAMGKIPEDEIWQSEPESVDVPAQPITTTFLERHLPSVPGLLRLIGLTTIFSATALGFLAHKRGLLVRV
Description: (2) Measurement of MAO-B Inhibitory Activity
The MAO-B inhibitory activity evaluation described below followed the protocol of MAO-Glo (registered trademark) Assay of Promega KK.
(§1) A test compound dissolved in 4% DMSO was added by 12.5 μL to 25 μL reaction solution (100 mM HEPES (pH 7.5), 5% glycerol, 10% DMSO) containing 400 ng of MAO-B enzyme (Sigma-Aldrich Co. LLC.), and the mixture was reacted at room temperature for 10 min. MAO substrate (Promega KK) (16 μM) was added by 12.5 μL to start the reaction. After reaction at room temperature for 60 min, Luciferine detection reagent (Promega KK) (50 μL) was added to terminate the reaction. After reaction at room temperature for 20 min with stirring, the luminescence was measured by Envision (PerkinElmer). The MAO-B inhibitory rate (%) of the test compound was calculated by the following formula. inhibitory rate (%)=(1−(test compound count−blank)÷(control−blank)×100
The count of the MAO-B enzyme reaction mixture under compound non-addition conditions is indicated as control, and the count under compound non-addition and MAO-B enzyme non-addition conditions is indicated as blank.

[2] = molecular target: T2, human LSD1(171-852) (Homo sapiens, UniProt O60341); experiment: Measurement of LSD1 inhibitory activity (time-resolved fluorescence, biotin-histone H3 mono methylated K4 peptide); conditions: read-out: LSD1 IC50 value
T2 construct: to give hLSD1(171-852) purified product; made in house; host or cells: Escherichia coli C43(DE3) pLysS
Description: When the turbidity reached 600 Klett units, the culture temperature was changed to 16° C., IPTG having a final concentration of 0.5 mM was added to induce expression, and the cells were cultured further for 21 hr. The culture medium was centrifuged at 9,000 g for 10 min, and Escherichia coli pellets were recovered.
Escherichia coli pellets in 9 L of the culture medium were suspended in 1340 mL of an extraction buffer (PBS, 5% (V/V) Glycerol), and 6700 units of Benzonase (Merck) were added. Using Branson ultrasonic disintegrator, the suspension was disrupted by ultrasonication for 3 min, and centrifuged at 33,000 g for 20 min, and the supernatant was recovered.
(5) Measurement of LSD1 Inhibitory Activity
After reaction at room temperature for 20 min, 1 mM 2-PCPA solution (5 μL) was added to terminate the reaction. A detection solution (800 mM potassium fluoride, 0.1% BSA) containing europium-labeled antihistone H3 antibody (Wako Pure Chemical Industries, Ltd.) and Streptavidin-XL665 (Cisbio) was further added by 5 μL, and the mixture was left standing for 60 min. A time-resolved fluorescence (excitation 320 nm, emission 615 nm, 665 nm) was measured by Envision (PerkinElmer). The LSD1 inhibitory rate (%) of the test compound was calculated by the following formula. inhibitory rate (%)=(1−(test compound count−blank)÷(control−blank)×100
The count of the LSD1 enzyme reaction mixture under compound non-addition conditions is indicated as control, and the count under compound non-addition and LSD1 enzyme non-addition conditions is indicated as blank.

[3] = molecular target: T3, MAO-A (Homo sapiens, UniProt P21397); experiment: Measurement of MAO-A inhibitory activity (MAO-Glo Assay)
T3 construct: purchased Sigma-Aldrich Co. LLC
T3 sequence (P21397 1-527): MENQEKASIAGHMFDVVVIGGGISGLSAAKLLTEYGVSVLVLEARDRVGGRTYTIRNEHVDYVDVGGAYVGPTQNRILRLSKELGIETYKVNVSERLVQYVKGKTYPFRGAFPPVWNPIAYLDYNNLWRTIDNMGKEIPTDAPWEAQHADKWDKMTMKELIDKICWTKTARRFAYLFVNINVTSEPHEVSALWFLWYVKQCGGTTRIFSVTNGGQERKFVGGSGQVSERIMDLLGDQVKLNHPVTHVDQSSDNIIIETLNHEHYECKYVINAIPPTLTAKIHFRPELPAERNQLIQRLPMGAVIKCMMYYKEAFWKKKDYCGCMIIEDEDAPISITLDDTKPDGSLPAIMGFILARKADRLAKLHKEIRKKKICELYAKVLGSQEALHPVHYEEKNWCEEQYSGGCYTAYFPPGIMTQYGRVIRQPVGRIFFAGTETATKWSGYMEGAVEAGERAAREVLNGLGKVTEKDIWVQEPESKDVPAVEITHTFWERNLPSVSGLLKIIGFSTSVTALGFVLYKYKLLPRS
Description: (1) Measurement of MAO-A Inhibitory Activity
The MAO-A inhibitory activity evaluation described below followed the protocol of MAO-Glo (registered trademark) Assay of Promega KK.
as §1, with “glycerol)” for “glycerol, 10% DMSO)”, “MAO-A” for “MAO-B”, “(160” for “(16”
The count of the MAO-A enzyme reaction mixture under compound non-addition conditions is indicated as control, and the count under compound non-addition and MAO-A enzyme non-addition conditions is indicated as blank.

IC50 [1] [µM] | IC50 [2] [µM] | IC50 [3] [µM] | Compound
> 10 | < 0.1 | > 10 | O=C(Nc1ccc([C@@H]2C[C@H]2NCC2CC2)cc1)c1ccc2cc[nH]c2c1 (relative stereo) [Example 115, N-(4-{trans-2-[(cyclopropylmethyl)amino]cyclopropyl}-phenyl)-1H-indole-6-carboxamide]
5.1 | 0.11 | 5.8 | COc1cccc(CN[C@@H]2C[C@H]2c2ccc(NC(=O)c3ccc(-c4ccccc4)cc3)cc2)c1 (relative stereo) [Example 41, N-(4-{trans-2-[(3-methoxybenzyl)-amino]cyclo-propyl}phenyl)-biphenyl-4-carboxamide]
> 10 | < 0.1 | > 10 | CN(C)c1ccc(C(=O)Nc2ccc([C@@H]3C[C@H]3NCC3CC3)cc2)cc1 (relative stereo) [Example 84, N-(4-{trans-2-[(cyclopropylmethyl)amino]cyclopropyl}-phenyl)-4-(dimethylamino)-benzamide]
1.5 | < 0.1 | 0.85 | COc1ccc(CN[C@@H]2C[C@H]2c2ccc(NC(=O)c3ccc(-c4ccccc4)cc3)cc2)cn1 (relative stereo) [Example 54]
> 10 | 0.1 | > 10 | O=C(Nc1ccc([C@@H]2C[C@H]2NCC2CC2)cc1)c1c[nH]c2ccccc12 (relative stereo) [Example 127, N-(4-{trans-2-[(cyclopropyl-methyl)amino]cyclo-propyl}phenyl)-1H-indole-3-carboxamide]
> 10 | 0.28 | > 10 | CC(C)(C)c1cccc(C(=O)Nc2ccc([C@@H]3C[C@H]3NCc3ccccc3)cc2)c1 (relative stereo) [Example 9, N-{4-[trans-2-(benzylamino)cyclopropyl]phenyl}-3-tert-butylbenzamide]
> 10 | < 0.1 | > 10 | O=C(Nc1ccc([C@@H]2C[C@H]2NCC2CC2)cc1)c1ccc(OCc2ccccc2)cc1 (relative stereo) [Example 71, 4-(benzyloxy)-N-(4-{trans-2-[(cyclopropylmethyl)amino]cyclopropyl}phenyl)benzamide hydrochloride]
> 10 | < 0.1 | 7.5 | O=C(Nc1ccc([C@@H]2C[C@H]2NCC2CC2)cc1)c1ccc(-n2cccc2)cc1 (relative stereo) [Example 117, N-(4-{trans-2-[(cyclopropylmethyl)amino]cyclopropyl}-phenyl)-4-(1H-pyrrol-1-yl)benzamide]
> 10 | < 0.1 | 5.7 | O=C(Nc1ccc([C@@H]2C[C@H]2NCC2CC2)cc1)c1ccc(-c2cc[nH]n2)cc1 (relative stereo) [Example 113, N-(4-{trans-2-[(cyclopropylmethyl)amino]cyclopropyl}phenyl)-4-(1H-pyrazol-3-yl)benzamide hydrochloride]
> 10 | < 0.1 | > 10 | O=C(Nc1ccc([C@@H]2C[C@H]2NCc2ccc3c(c2)OCO3)cc1)c1ccc(-c2ccccc2)cc1 (relative stereo) [Example 42, N-(4-{trans-2-[(1,3-benzodioxol-5-ylmethyl)amino]-cyclopropyl}-phenyl)biphenyl-4-carboxamide]
> 10 | 0.1 | > 10 | CS(=O)(=O)Nc1ccc(C(=O)Nc2ccc([C@@H]3C[C@H]3NCC3CC3)cc2)cc1 (relative stereo) [Example 135, N-(4-{trans-2-[(cyclopropylmethyl)amino]cyclopropyl}phenyl)-4-[(methylsulfonyl)amino]benzamide hydrochloride]
> 10 | < 0.1 | 5.6 | Cc1cccc(C(=O)Nc2ccc([C@@H]3C[C@H]3NCc3ccccc3)cc2)c1 (relative stereo) [Example 7, N-{4-[trans-2-(benzylamino)cyclopropyl]phenyl}-3-methylbenzamide]
> 10 | < 0.1 | 6.7 | O=C(Nc1ccc([C@@H]2C[C@H]2NCC2CC2)cc1)c1cccc(Cn2ccnc2)c1 (relative stereo) [Example 146, N-(4-{trans-2-[(cyclopropylmethyl)amino]cyclopropyl}phenyl)-3-(1H-imidazol-1-ylmethyl)benzamide hydrochloride]
> 10 | < 0.1 | 4.5 | O=C1c2ccccc2C(=O)N1c1ccc([C@@H]2C[C@H]2NCC2CC2)cc1 (relative stereo) [Example 143, 2-(4-{trans-2-[(cyclopropylmethyl)amino]cyclopropyl}phenyl)-1H -isoindole-1,3(2H)-dione hydrochloride]
> 10 | 0.1 | > 10 | Cc1cc(C(=O)Nc2ccc([C@@H]3C[C@H]3NCC3CC3)cc2)nn1C (relative stereo) [Example 157, N-(4-{trans-2-[(cyclopropylmethyl)amino]cyclopropyl}phenyl)-1,5-dimethyl-1H-pyrazole-3-carboxamide dihydrochloride]
> 10 | 0.14 | 3.3 | O=C(Nc1ccc([C@@H]2C[C@H]2NCc2ccccc2)cc1)c1cccc(Oc2ccccc2)c1 (relative stereo) [Example 10, N-{4-[trans-2-(benzylamino)cyclopropyl]phenyl}-3-phenoxybenzamide]
> 10 | < 0.1 | > 10 | O=C(Nc1ccc([C@@H]2C[C@H]2NCC2CC2)cc1)c1ccc(-c2ccncc2)cc1 (relative stereo) [Example 96, N-(4-{trans-2-[(cyclopropylmethyl)-amino]cyclopropyl}-phenyl)-4-(pyridin-4-yl)benzamide]
